Measurements from patent US8263608B2, “Melanocortin receptor-specific spiro-piperidine compounds” (Palatin Technologies, Inc., priority 2008, dated 2012).

Molecular target: T1, MC1-R (Homo sapiens, UniProt Q01726)
T1 construct: or, for MC1-R, in HBL cells; endogenous in cells; host or cells: HBL cells
Test: Assay for agonist activity: intracellular cAMP accumulation (functional assay)
Format: cell-based
Settings: functional assays at MC1-R; for EC50: HBL cells that express MC1-R, cAMP; for Emax: maximum efficacy compared to reference agonist NDP-α-MSH
Experimental: Accumulation of intracellular cAMP is examined as a measure of the ability of the test compounds to elicit a functional response in HEK-293 cells that express MC4-R, or, for MC1-R, in HBL cells. Confluent HEK-293 cells that express recombinant hMC4-R, or HBL cells that express MC1-R, are detached from culture plates by incubation in enzyme-free cell dissociation buffer. Dispersed cells are suspended in Earle's Balanced Salt Solution containing 10 mM HEPES (pH 7.5), 1 mM MgCl2, 1 mM glutamine, 0.5% albumin and 0.3 mM 3-isobutyl-1-methyl-xanthine (IBMX), a phosphodiesterase inhibitor. The cells are plated in 96-well plates at a density of 0.5 x 10^5 cells per well and pre-incubated for 30 minutes. Cells are exposed for 1 hour at 37° C. to test compounds dissolved in DMSO (final DMSO concentration of 1%) at a concentration range of 0.05-5000 nM in a total assay volume of 200 μL. NDP-α-MSH is used as the reference agonist. At the end of the incubation period, cells are disrupted by the addition of 50 μL of lysis buffer (cAMP EIA kit, Amersham) followed by vigorous pipetting. Levels of cAMP in the lysates are determined using a cAMP EIA kit (Amersham). Data analysis is performed by nonlinear regression analysis with Graph-Pad Prism® software. The maximum efficacies of the test compounds are compared to that achieved by the reference melanocortin agonist NDP-α-MSH.

T1 sequence (Q01726 whole entry): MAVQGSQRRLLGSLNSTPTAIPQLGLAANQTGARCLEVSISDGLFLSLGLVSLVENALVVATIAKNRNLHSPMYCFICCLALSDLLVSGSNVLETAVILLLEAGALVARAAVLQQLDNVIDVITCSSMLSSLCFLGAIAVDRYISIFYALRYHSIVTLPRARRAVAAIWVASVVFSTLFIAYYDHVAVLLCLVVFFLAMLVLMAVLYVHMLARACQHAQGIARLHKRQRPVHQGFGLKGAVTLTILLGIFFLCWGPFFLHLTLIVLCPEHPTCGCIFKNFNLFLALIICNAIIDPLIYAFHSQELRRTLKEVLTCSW

SMILES	functional status at MC1-R	EC50	Emax
COC(=O)CN1CN(c2ccccc2)C2(CCN(C(=O)[C@@H](Cc3ccc(OC)cc3)NC(=O)CCc3cnc[nH]3)CC2)C1=O [Example 137, {8-[(R)-2-(3-3H-Imidazol-4-yl-propionylamino)-3-(4-methoxy-phenyl)-propionyl]-4-oxo-1-phenyl-1,3,8-triaza-spiro[4.5]dec-3-yl}-acetic acid methyl ester]	partial agonist	38 nM	56%
COC(=O)CN1CN(c2ccccc2)C2(CCN(C(=O)[C@@H](Cc3ccc(OC)cc3)NC(=O)CCCCN)CC2)C1=O [Example 138, {8-[(R)-2-(5-Amino-pentanoylamino)-3-(4-methoxy-phenyl)-propionyl]-4-oxo-1-phenyl-1,3,8-triaza-spiro[4.5]dec-3-yl}-acetic acid methyl ester]	partial agonist	340 nM	44%
COc1ccc(C[C@@H](NC(=O)[C@@H](N)Cc2cncn2C)C(=O)N2CCC3(CC2)C(=O)N(C)CN3c2ccccc2)cc1 [Example 139, (S)-2-Amino-N-[(R)-1-(4-methoxy-benzyl)-2-(3-methyl-4-oxo-1-phenyl-1,3,8-triaza-spiro[4.5]dec-8-yl)-2-oxo-ethyl]-3-(3-methyl-3H-imidazol-4-yl)-propionamide]	partial agonist	177 nM	45%
CCN1CN(c2ccccc2)C2(CCN(C(=O)[C@@H](Cc3ccc(OC)cc3)NC(=O)[C@@H](N)Cc3cncn3C)CC2)C1=O [Example 140, (S)-2-Amino-N-[(R)-2-(3-ethyl-4-oxo-1-phenyl-1,3,8-triaza-spiro[4.5]dec-8-yl)-1-(4-methoxy-benzyl)-2-oxo-ethyl]-3-(3-methyl-3H-imidazol-4-yl)-propionamide]	partial agonist	25 nM	42%
COc1ccc(C[C@@H](NC(=O)[C@@H](N)Cc2cncn2C)C(=O)N2CCC3(CC2)C(=O)N(C(C)C)CN3c2ccccc2)cc1 [Example 141, (S)-2-Amino-N-[(R)-2-(3-isopropyl-4-oxo-1-phenyl-1,3,8-triaza-spiro[4.5]dec-8-yl)-1-(4-methoxy-benzyl)-2-oxo-ethyl]-3-(3-methyl-3H-imidazol-4-yl)-propionamide]	partial agonist	6 nM	45%
CCCCN1CN(c2ccccc2)C2(CCN(C(=O)[C@@H](Cc3ccc(OC)cc3)NC(=O)[C@@H](N)Cc3cncn3C)CC2)C1=O [Example 142, (S)-2-Amino-N-[(R)-2-(3-butyl-4-oxo-1-phenyl-1,3,8-triaza-spiro[4.5]dec-8-yl)-1-(4-methoxy-benzyl)-2-oxo-ethyl]-3-(3-methyl-3H-imidazol-4-yl)-propionamide]	partial agonist	20 nM	43%
COc1ccc(C[C@@H](NC(=O)[C@@H](N)Cc2cncn2C)C(=O)N2CCC3(CC2)C(=O)N(Cc2ccccc2)CN3c2ccccc2)cc1 [Example 144, (S)-2-Amino-N-[(R)-2-(3-benzyl-4-oxo-1-phenyl-1,3,8-triaza-spiro[4.5]dec-8-yl)-1-(4-methoxy-benzyl)-2-oxo-ethyl]-3-(3-methyl-3H-imidazol-4-yl)-propionamide]	partial agonist	17 nM	46%
COc1ccc(C[C@@H](NC(=O)CCc2cnc[nH]2)C(=O)N2CCC3(CC2)C(=O)N(CCO)CN3c2ccccc2)cc1 [Example 149, N-[(R)-2-[3-(2-Hydroxy-ethyl)-4-oxo-1-phenyl-1,3,8-triaza-spiro[4.5]dec-8-yl]-1-(4-methoxy-benzyl)-2-oxo-ethyl]-3-(3H-imidazol-4-yl)-propionamide]	partial agonist	25 nM	60%
COc1ccc(C[C@@H](NC(=O)CCc2cnc[nH]2)C(=O)N2CCC3(CC2)C(=O)N(C(C)C)CN3c2ccccc2)cc1 [Example 150, 3-(3H-Imidazol-4-yl)-N-[(R)-2-(3-isopropyl-4-oxo-1-phenyl-1,3,8-triaza-spiro[4.5]dec-8-yl)-1(4-methoxy-benzyl)-2-oxo-ethyl]-propionamide]	partial agonist	3 nM	71%

Next, values leading:

functional status at MC1-R	EC50	Emax	SMILES
partial agonist	7 nM	37%	COc1ccc(C[C@@H](NC(=O)[C@@H](N)Cc2cncn2C)C(=O)N2CCC3(CC2)C(=O)N(C2CCCC2)CN3c2ccccc2)cc1 [Example 151, (S)-2-Amino-N-[(R)-2-(3-cyclopentyl-4-oxo-1-phenyl-1,3,8-triaza-spiro[4.5]dec-8-yl)-1-(4-methoxy-benzyl)-2-oxo-ethyl]-3-(3-methyl-3H-imidazol-4-yl)-propionamide]
partial agonist	2 nM	50%	COc1ccc(C[C@@H](NC(=O)CCc2cnc[nH]2)C(=O)N2CCC3(CC2)C(=O)N(C2CCCC2)CN3c2ccccc2)cc1 [Example 152, N-[(R)-2-(3-Cyclopentyl-4-oxo-1-phenyl-1,3,8-triaza-spiro[4.5]dec-8-yl)-1-(4-methoxy-benzyl)-2-oxo-ethyl]-3-(3H-imidazol-4-yl)-propionamide]
partial agonist	12 nM	54%	COc1ccc(C[C@@H](NC(=O)CCc2c[nH]cn2)C(=O)N2CCC3(CC2)C(=O)N(Cc2ccccc2)CN3c2ccccc2)cc1 [Example 153, N-[(R)-2-(3-Benzyl-4-oxo-1-phenyl-1,3,8-triaza-spiro[4.5]dec-8-yl)-1-(4-methoxy-benzyl)-2-oxo-ethyl]-3-(1H-imidazol-4-yl)-propionamide]
partial agonist	26 nM	50%	COc1ccc(C[C@@H](NC(=O)CCc2c[nH]cn2)C(=O)N2CCC3(CC2)C(=O)N(Cc2ccccc2Cl)CN3c2ccccc2)cc1 [Example 154, N-[(R)-2-[3-(2-Chloro-benzyl)-4-oxo-1-phenyl-1,3,8-triaza-spiro[4.5]dec-8-yl]-1-(4-methoxy-benzyl)-2-oxo-ethyl]-3-(1H-imidazol-4-yl)-propionamide]
partial agonist	14 nM	42%	COc1ccc(C[C@@H](NC(=O)CCc2c[nH]cn2)C(=O)N2CCC3(CC2)C(=O)N(Cc2cccc(Cl)c2)CN3c2ccccc2)cc1 [Example 155, N-[(R)-2-[3-(3-Chloro-benzyl)-4-oxo-1-phenyl-1,3,8-triaza-spiro[4.5]dec-8-yl]-1-(4-methoxy-benzyl)-2-oxo-ethyl]-3-(1H-imidazol-4-yl)-propionamide]
partial agonist	23 nM	45%	COc1ccc(C[C@@H](NC(=O)CCc2c[nH]cn2)C(=O)N2CCC3(CC2)C(=O)N(Cc2ccc(Cl)cc2)CN3c2ccccc2)cc1 [Example 156, N-[(R)-2-[3-(4-Chloro-benzyl)-4-oxo-1-phenyl-1,3,8-triaza-spiro[4.5]dec-8-yl]-1-(4-methoxy-benzyl)-2-oxo-ethyl]-3-(1H-imidazol-4-yl)-propionamide]
partial agonist	41 nM	38%	COc1ccc(C[C@@H](NC(=O)CCc2c[nH]cn2)C(=O)N2CCC3(CC2)C(=O)N(Cc2ccccn2)CN3c2ccccc2)cc1 [Example 157, 3-(1H-Imidazol-4-yl)-N-[(R)-1-(4-methoxy-benzyl)-2-oxo-2-(4-oxo-1-phenyl-3-pyridin-2-ylmethyl-1,3,8-triaza-spiro[4.5]dec-8-yl)-ethyl]-propionamide]
partial agonist	20 nM	45%	COc1ccc(C[C@@H](NC(=O)CCc2c[nH]cn2)C(=O)N2CCC3(CC2)C(=O)N(Cc2cccnc2)CN3c2ccccc2)cc1 [Example 158, 3-(1H-Imidazol-4-yl)-N-[(R)-1-(4-methoxy-benzyl)-2-oxo-2-(4-oxo-1-phenyl-3-pyridin-3-ylmethyl-1,3,8-triaza-spiro[4.5]dec-8-yl)-ethyl]-propionamide]
partial agonist	6 nM	49%	COc1ccc(C[C@@H](NC(=O)CCc2cnc[nH]2)C(=O)N2CCC3(CC2)C(=O)N(C2CCC2)CN3c2ccccc2)cc1 [Example 159, N-[(R)-2-(3-Cyclobutyl-4-oxo-1-phenyl-1,3,8-triaza-spiro[4.5]dec-8-yl)-1-(4-methoxy-benzyl)-2-oxo-ethyl]-3-(3H-imidazol-4-yl)-propionamide]
partial agonist	0.7 nM	75%	COc1ccc(C[C@@H](NC(=O)C[C@H]2Cc3ccccc3CN2)C(=O)N2CCC3(CC2)C(=O)N(C(C)C)CN3c2ccccc2)cc1 [Example 164, N-[(R)-2-(3-Isopropyl-4-oxo-1-phenyl-1,3,8-triaza-spiro[4.5]dec-8-yl)-1-(4-methoxy-benzyl)-2-oxo-ethyl]-2-(R)-1,2,3,4-tetrahydro-isoquinolin-3-yl-acetamide]
